One substance from PMC3103472, “The p75 neurotrophin receptor localization in blood-CSF barrier: expression in choroid plexus epithelium” (BMC Neuroscience, 2011) can be followed below.

Test [1] deals with choroid plexus epithelial cells. In words: Cell death quantification with Cell Death Detection ELISAPLUS kit. The test is classed as cell-based, rat. To be noted: primary choroid plexus epithelial cells, Aβ40 5 mg/ml, 24 h, ELISA PLUS kit. On the procedure: Primary cultures from choroid plexus epithelial cells from P3-P5 Wistar rats were prepared as described previously. Cells were grown to confluence for 5-7 days and serum starved for 2 hours. Cultures were maintained at 37°C in a humidified atmosphere containing 5% CO2, and cultivated for 7 days prior to experimentation. Human analogue peptides corresponding to Aβ1-40 and scrambled Aβ1-40 (AnaSpec, Inc.) were added. 24 hours after stimulation, cells were either fixed for immunocytochemical analysis or homogenized for immunoblot determination. For ICD p75NTR detection primary cultures cells proteasome inhibitor epoxomycin (1 μM) (Sigma) was applied 1.5 hours prior to Aβ treatment.
For cell death quantification, after incubation for 24 h with Aβ40 (5 mg/ml), choroid plexus epithelial cells in vitro were measured with Cell Death Detection ELISAPLUS kit (Roche Diagnostics) as described previously.
Background: In an ELISA, binding on a coated surface is turned into a signal by an enzyme label.

For a further test, the system named is p75NTR. In words: Proteolytic processing of p75NTR (Western blot, immunofluorescence, cell fractionation). The test is classed as cell-based, rat. On the procedure: Primary cultures from choroid plexus epithelial cells from P3-P5 Wistar rats were prepared as described previously. Cells were grown to confluence for 5-7 days and serum starved for 2 hours. Cultures were maintained at 37°C in a humidified atmosphere containing 5% CO2, and cultivated for 7 days prior to experimentation. Human analogue peptides corresponding to Aβ1-40 and scrambled Aβ1-40 (AnaSpec, Inc.) were added. […] For ICD p75NTR detection primary cultures cells proteasome inhibitor epoxomycin (1 μM) (Sigma) was applied 1.5 hours prior to Aβ treatment.
For Western blot analysis cultures cells were washed once with ice-cold PBS and lysed in PIK buffer (150 mM NaCl, 20 mM TrisHCl pH 7.4, 1% NP40 and protease inhibitors: 1 μg/mL aprotinin, 1 μg/mL leupeptin and 1 μg/mL phenylmethylsulfonyl fluoride, PMSF). For cell fractionation cells were lysed with C buffer (10 mM HEPES, 60 mM KCl, 1 mM EDTA, 0.075% Triton X100, 1 mM DTT with protease inhibitors. The pellet nuclei was obtained by centrifugation 325 g, 4 minutes and resuspended in NB buffer (20 mM TrisHCl pH 8, 420 mM NaCl, 15 mM MgCl2, 0.2 mM EDTA, 25% Glicerol and protease inhibitors). Thereafter, the nuclei supernatant were obtained after centrifugation 9000 g, 10 minutes. After running the samples in acrylamide gels, proteins were transferred (immobilon, Bio-Rad) and membranes were incubated with the corresponding primary at 4°C overnight. Afterwards, membranes were washed and incubated with secondary antibodies. Membranes were washed several times with Tween-TBS and developed with ECL plus (Amersham). Western blot membranes were re-blotted with unrelated proteins (α-actin) as an internal standard and normalized for protein load. Densitometric analysis was performed using ImageJ software (NIH Image). A representative blot is shown from a total of at lest three independent experiments.
Immunocytochemistry was performed with primary cultures from choroid plexus plated on 20 mm coverslips and fixed. Rat and human choroid plexus were also fixed with 4% paraformaldehyde and processed for histochemical analysis. […]
(In general: In western blotting, separated proteins are transferred to a membrane and probed.)

In the case of “Aβ1-40: Human analogue peptides corresponding to Aβ1-40 (AnaSpec, Inc.)”, in test [1], the “increase of cell death upon control cells” value is on record as 29%. The “release of p75NTR-ICD fragment (19 KDa)” value with p75NTR (Aβ1-40 2.5 μg/mL for 15, 30 and 60 minutes, proteasome inhibitor pre-treatment, Western blot with antibody 9992) is “induced a release of ICD fragment at 15 and 30 minutes”. Besides, in the test on p75NTR (Aβ1-40 2.5 μg/mL, 60 minutes, proteasome inhibitor 1.5 hours before, confocal microscopy), the “nuclear accumulation of p75NTR-ICD, immunofluorescence” value is recorded as “considerable accumulation of p75NTR-ICD occurred in the majority of nuclei”. Further, the “p75NTR-ICD 19 KDa band in nuclear extracts” value in the test with p75NTR (Aβ1-40 for 15, 30 and 60 minutes, nuclear and cytoplasmic extracts, Western blot with antibody 9992) is recorded as “enriched in nuclear extracts”.
